Article PMC9234671, “Molecular determinants of αVβ5 localization in flat clathrin lattices – role of αVβ5 in cell adhesion and proliferation” (Journal of Cell Science, 2022)

System: β5 Ser-759/762 phosphorylation
Assay: Mass spectrometry of β5 immunoprecipitates: β5 phosphorylation
Format: cell-based, human
Excerpt: Journal of Cell Science | Peer review history […]
opinion most interesting findings linked to the serine/threonine phosphorylation sites.
Response: We have now changed the t itle and abstract to better emphasize the interesting and novel findings (page 1 -2).
Reviewer 2 Comments for the author...
There are some points that the authors may want to consider: […]
only very limited binding to kindlin-1/2. Furthermore, the phosphomimetic β5-S759/762E mutant promotes localization in FCLs. In the BirA experiments, the authors detect no biotinylation of clathrin adaptors ARH and NUMB with the b5/b1 or b5/b1 chimeras, in contrast to the b5 wt. Is this also the case for clathrin or AP2-mu, established components of FCL?
Response: We thank the reviewer for his/her useful remark. […]
The peptide pull-downs in figure 2 are a little problematic given the high Bg binding of NUMB and ARH to the b1 scr peptide. […] In addition, quantifications from several biological repeats of the pulldowns might help t o establish the reproducibility and statistical significance of the differences indicated by the authors in the text. […]
Figure 3. […] Specifically, we assessed whether phosphorylation of […]
of β5 at S759 and S762 could be detected (discussed in the middle of page 13).
Figure 4. is there a reason for using talin rather than vinculin staining as a FA marker here? […] Could this be analysed and mentioned in the text? […]

Question: How did the “detection of β5 phosphorylation at S759 and S762” value (25 nM calyculin for 20 min, PA-JEB/β4 keratinocytes, anti-β5 immunoprecipitation, MS/MS) turn out when `COC[C@@H]([C@H](O)[C@H](O)C(=O)NCC[C@H](C)c1nc(/C=C/C[C@@H]2O[C@]3(C[C@@H](O)[C@@H]2C)O[C@H]([C@H](C[C@H](O)[C@H](C)[C@H](O)[C@H](C)/C=C(C)/C(C)=C/C=C/C(C)=C\C#N)OC)[C@H](OP(=O)(O)O)C3(C)C)co1)N(C)C` [calyculin A] was run?
Answer: The value was “no phosphorylation”.

Question: What about the “detection of β5 phosphorylation at Ser-759/762” value (calyculin A-treated cells, mass spectrometry of β5 immunoprecipitates) of the same molecule?
Answer: The value was “unsuccessful”.
